Assay results from ChEMBL document CHEMBL4020763, “N-(1H-Pyrazol-3-yl)quinazolin-4-amines as a novel class of casein kinase 1δ/ε inhibitors: Synthesis, biological evaluation and molecular modeling studies” (Bioorg Med Chem Lett, 2017).

Legend:
MIA PaCa-2 [1] = experiment: Cytotoxicity against human MIAPaCa2 cells by MTT assay; format: functional, cell-based
ZR-75-30 [2] = experiment: Cytotoxicity against human ZR-7530 cells by MTT assay; format: functional, cell-based
HEK293 = experiment: Cytotoxicity against HEK293 cells by MTT assay; format: cell-based; details: Homo sapiens
MDA-MB-468 [3] = experiment: Growth inhibition of human MDA-MB-468 cells at 100 uM by MTT assay relative to control; format: functional; details: read-out: GI
[4] = target: Glycogen synthase kinase-3 (Sus scrofa) (UniProt B2LUN4+I6LNT8); experiment: Inhibition of porcine brain GSK-3 alpha/beta at 10 uM using YRRAAVPPSPSLSRHSSPHQpSEDEEE as substrate after 30 mins in presence of ATP by scintillation counting method relative to control
[5] = Inhibition of M-phase starfish oocytes CDK1/cyclin B using histone H1 as substrate after 30 mins in presence of ATP by scintillation counting method; parameters: species or system Asteroidea
[6] = target: CDK2/Cyclin A2 (Homo sapiens) (UniProt P24941+P20248); experiment: Inhibition of recombinant human CDK2/cyclin A at 10 uM using histone H1 as substrate after 30 mins in presence of ATP by scintillation counting method relative to control; format: protein-complex assay
[7] = target: Dual specificity protein kinase CLK1 (Mus musculus) (UniProt P22518); experiment: Inhibition of recombinant mouse GST-fused CLK1 expressed in Escherichia coli at 10 uM using RS peptide as substrate after 30 mins in presence of ATP by scintillation counting method relative to control
Dual specificity protein kinase CLK1 (Mus musculus), sequence (P22518 whole entry, looked up, the tested form may be a part): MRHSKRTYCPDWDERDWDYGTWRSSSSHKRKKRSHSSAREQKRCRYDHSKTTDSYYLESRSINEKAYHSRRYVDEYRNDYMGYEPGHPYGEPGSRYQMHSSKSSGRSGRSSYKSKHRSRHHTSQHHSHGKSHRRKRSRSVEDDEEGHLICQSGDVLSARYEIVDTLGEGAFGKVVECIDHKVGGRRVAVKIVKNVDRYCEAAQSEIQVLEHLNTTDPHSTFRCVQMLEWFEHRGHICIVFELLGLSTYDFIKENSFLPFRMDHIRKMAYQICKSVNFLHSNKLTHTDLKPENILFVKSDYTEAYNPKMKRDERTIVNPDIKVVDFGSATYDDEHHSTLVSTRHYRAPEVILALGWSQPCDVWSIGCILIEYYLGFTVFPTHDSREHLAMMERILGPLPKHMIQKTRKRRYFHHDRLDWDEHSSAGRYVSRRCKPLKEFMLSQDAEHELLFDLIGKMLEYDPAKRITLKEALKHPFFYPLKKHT

HCT-15 [8] = experiment: Growth inhibition of human HCT15 cells at 100 uM by MTT assay relative to control; format: functional; details: read-out: GI
ZR-75-1 [9] = experiment: Cytotoxicity against human ZR-75-1 cells by MTT assay; format: functional, cell-based
PANC-1 [10] = experiment: Growth inhibition of human PANC1 cells at 100 uM by MTT assay relative to control; format: functional; details: read-out: GI
CDK2/Cyclin A2 = CDK2/Cyclin A2 (Homo sapiens, UniProt P24941); experiment: Inhibition of recombinant human CDK2/cyclin A using histone H1 as substrate after 30 mins in presence of ATP by scintillation counting method; format: protein-complex assay
A549 [11] = experiment: Growth inhibition of human A549 cells at 100 uM by MTT assay relative to control; format: functional; details: read-out: GI
ZR-75-1 [12] = experiment: Growth inhibition of human ZR-75-1 cells at 100 uM by MTT assay relative to control; format: functional; details: read-out: GI
[13] = Growth inhibition of HEK293 cells at 100 uM by MTT assay relative to control; format: cell-based; details: human, read-out: GI
MDA-MB-231 [14] = experiment: Growth inhibition of human MDA-MB-231 cells at 100 uM by MTT assay relative to control; format: functional; details: read-out: GI
DU-145 = experiment: Growth inhibition of human DU145 cells at 100 uM by MTT assay relative to control; format: functional; details: read-out: GI
MCF7 [15] = experiment: Growth inhibition of human MCF7 cells at 100 uM by MTT assay relative to control; format: functional; details: read-out: GI
Sus scrofa = organism: Sus scrofa; experiment: Inhibition of porcine brain CK1-delta/epsilon at 10 uM using CSK peptide as substrate after 30 mins in presence of ATP by scintillation counting method relative to control
BT-20 [16] = experiment: Growth inhibition of human BT20 cells at 100 uM by MTT assay relative to control; format: functional; details: read-out: GI
MDA-MB-468 [17] = experiment: Cytotoxicity against human MDA-MB-468 cells by MTT assay; format: functional, cell-based
ZR-75-30 [18] = experiment: Growth inhibition of human ZR-7530 cells at 100 uM by MTT assay relative to control; format: functional; details: read-out: GI
HCT-15 [19] = experiment: Cytotoxicity against human HCT15 cells by MTT assay; format: functional, cell-based
Asteroidea = experiment: Inhibition of M-phase starfish oocytes CDK1/cyclin B at 10 uM using histone H1 as substrate after 30 mins in presence of ATP by scintillation counting method relative to control
MCF7 [20] = experiment: Cytotoxicity against human MCF7 cells by MTT assay; format: functional, cell-based
BT-20 [21] = experiment: Cytotoxicity against human BT20 cells by MTT assay; format: functional, cell-based
A549 [22] = experiment: Cytotoxicity against human A549 cells by MTT assay; format: functional, cell-based
[23] = target: Cyclin-dependent kinase 5/CDK5 activator 1 (Homo sapiens) (UniProt Q00535+Q15078); experiment: Inhibition of recombinant human CDK5/p25 expressed in Escherichia coli at 10 uM using histone H1 as substrate after 30 mins in presence of ATP by scintillation counting method relative to control
Cyclin-dependent kinase 5/CDK5 activator 1 (Homo sapiens), sequence (Q00535 whole entry): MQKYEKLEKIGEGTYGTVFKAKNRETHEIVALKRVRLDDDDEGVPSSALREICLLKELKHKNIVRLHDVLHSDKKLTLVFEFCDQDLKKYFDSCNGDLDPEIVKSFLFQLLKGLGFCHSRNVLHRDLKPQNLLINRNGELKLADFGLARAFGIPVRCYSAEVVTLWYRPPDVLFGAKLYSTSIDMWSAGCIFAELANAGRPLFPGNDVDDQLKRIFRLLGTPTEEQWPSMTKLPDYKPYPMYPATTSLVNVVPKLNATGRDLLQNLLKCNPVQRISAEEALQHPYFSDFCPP
Cyclin-dependent kinase 5/CDK5 activator 1 (Homo sapiens), sequence (Q15078 99-307 partner limits assumed): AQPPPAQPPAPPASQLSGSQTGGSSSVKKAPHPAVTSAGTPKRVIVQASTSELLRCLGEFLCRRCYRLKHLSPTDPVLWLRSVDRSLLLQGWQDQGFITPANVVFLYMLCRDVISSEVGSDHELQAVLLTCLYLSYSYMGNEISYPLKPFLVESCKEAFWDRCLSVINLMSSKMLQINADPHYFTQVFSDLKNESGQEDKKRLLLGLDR

MDA-MB-231 [24] = experiment: Cytotoxicity against human MDA-MB-231 cells by MTT assay; format: functional, cell-based
[25] = target: CDK9/cyclin T1 (Homo sapiens) (UniProt O60563+P50750); experiment: Inhibition of recombinant human CDK9/cyclin T expressed in insect cells at 10 uM using YSPTSPSYSPTSPSYSPTSPSKKKK as substrate after 30 mins in presence of ATP by scintillation counting method relative to control
[26] = target: Dual specificity protein kinase CLK1 (Mus musculus, UniProt P22518); experiment: Inhibition of recombinant mouse GST-fused CLK1 expressed in Escherichia coli using RS peptide as substrate after 30 mins in presence of ATP by scintillation counting method
Dual specificity protein kinase CLK1, sequence (P22518 whole entry, the tested form may be a part): as the sequence (P22518 whole entry, looked up, the tested form may be a part) above

[27] = target: Glycogen synthase kinase-3 (Sus scrofa, UniProt B2LUN4+I6LNT8); experiment: Inhibition of porcine brain GSK-3 alpha/beta using YRRAAVPPSPSLSRHSSPHQpSEDEEE as substrate after 30 mins in presence of ATP by scintillation counting method
[28] = Inhibition of porcine brain CK1-delta/epsilon using CSK peptide as substrate after 30 mins in presence of ATP by scintillation counting method; parameters: species or system Sus scrofa
[29] = target: Dual specificity tyrosine-phosphorylation-regulated kinase 1A (Homo sapiens) (UniProt Q13627); experiment: Inhibition of recombinant full length human GST-fused DYRK1A expressed in Escherichia coli at 10 uM using RS peptide as substrate after 30 mins in presence of ATP by scintillation counting method relative to control
MIA PaCa-2 [30] = experiment: Growth inhibition of human MIAPaCa2 cells at 100 uM by MTT assay relative to control; format: functional; details: read-out: GI
PANC-1 [31] = experiment: Cytotoxicity against human PANC1 cells by MTT assay; format: functional, cell-based

Structure (SMILES) | IC50 (MIA PaCa-2 [1]) [µM] | IC50 (ZR-75-30 [2]) [µM] | IC50 (HEK293) [µM] | inhibition of growth at 100 µM (MDA-MB-468 [3]) [%] | inhibition [4] [%] | IC50 [5] [µM] | inhibition [6] [%] | inhibition [7] [%] | inhibition of growth at 100 µM (HCT-15 [8]) [%] | IC50 (ZR-75-1 [9]) [µM] | inhibition of growth at 100 µM (PANC-1 [10]) [%] | IC50 (CDK2/Cyclin A2) [µM] | inhibition of growth at 100 µM (A549 [11]) [%] | inhibition of growth at 100 µM (ZR-75-1 [12]) [%] | inhibition at 100 µM [13] [%] | inhibition of growth at 100 µM (MDA-MB-231 [14]) [%] | inhibition of growth at 100 µM (DU-145) [%] | inhibition of growth at 100 µM (MCF7 [15]) [%] | inhibition (Sus scrofa) [%] | inhibition of growth at 100 µM (BT-20 [16]) [%] | further results
COc1cc2ncnc(Nc3cc(-c4ccccc4)n(-c4ccccc4)n3)c2cc1OC | 72.9 | 58.8 | > 100 | > 50 | > 50 | > 10 | > 50 | > 50 | > 50 | > 100 | > 50 | > 10 | > 50 | > 50 | > 50 | > 50 | > 50 | > 50 | > 50 | > 50 | IC50 (MDA-MB-468 [17]): > 100 µM; inhibition of growth at 100 µM (ZR-75-30 [18]): > 50%; IC50 (HCT-15 [19]): < 100 µM; inhibition (Asteroidea): > 50%; IC50 (MCF7 [20]): > 100 µM; IC50 (BT-20 [21]): > 100 µM; IC50 (A549 [22]): < 100 µM; inhibition [23]: > 50%; IC50 (MDA-MB-231 [24]): 72.9 µM; inhibition [25]: > 50%; IC50 [26]: > 10 µM; IC50 [27]: > 10 µM; IC50 [28]: < 10 µM; inhibition [29]: > 50%; inhibition of growth at 100 µM (MIA PaCa-2 [30]): > 50%; IC50 (PANC-1 [31]): 70.7 µM
COc1cc2ncnc(Nc3cc(-c4ccccc4)[nH]n3)c2cc1OC | > 100 | > 100 | 71.1 | > 50 | > 50 | > 10 | > 50 | > 50 | > 50 | > 100 | > 50 | > 10 | > 50 | > 50 | > 50 | > 50 | > 50 | > 50 | > 50 | > 50 | IC50 (MDA-MB-468 [17]): > 100 µM; inhibition of growth at 100 µM (ZR-75-30 [18]): > 50%; IC50 (HCT-15 [19]): > 100 µM; inhibition (Asteroidea): > 50%; IC50 (MCF7 [20]): > 100 µM; IC50 (BT-20 [21]): > 100 µM; IC50 (A549 [22]): 29.7 µM; inhibition [23]: > 50%; IC50 (MDA-MB-231 [24]): > 100 µM; inhibition [25]: > 50%; IC50 [26]: > 10 µM; IC50 [27]: > 10 µM; IC50 [28]: 1.6 µM; inhibition [29]: > 50%; inhibition of growth at 100 µM (MIA PaCa-2 [30]): > 50%; IC50 (PANC-1 [31]): 9.3 µM
COc1cc2ncnc(Nc3n[nH]cc3C#N)c2cc1OC | > 100 | > 100 | > 100 | > 50 | > 50 | > 10 | > 50 | > 50 | > 50 | > 100 | > 50 | > 10 | > 50 | > 50 | > 50 | > 50 | > 50 | > 50 | > 50 | > 50 | IC50 (MDA-MB-468 [17]): > 100 µM; inhibition of growth at 100 µM (ZR-75-30 [18]): > 50%; IC50 (HCT-15 [19]): > 100 µM; inhibition (Asteroidea): > 50%; IC50 (MCF7 [20]): > 100 µM; IC50 (BT-20 [21]): > 100 µM; IC50 (A549 [22]): > 100 µM; inhibition [23]: > 50%; IC50 (MDA-MB-231 [24]): > 100 µM; inhibition [25]: > 50%; IC50 [26]: > 10 µM; IC50 [27]: > 10 µM; IC50 [28]: < 10 µM; inhibition [29]: > 50%; inhibition of growth at 100 µM (MIA PaCa-2 [30]): > 50%; IC50 (PANC-1 [31]): > 100 µM
